Legend:
[1] = system: human TERT expression (hTERT mRNA); assay: Quantitative real-time RT-PCR of hTERT mRNA expression (Ct, transcripts) in compound-treated cells; type: cell-based
In short: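 Read-out is cycle threshold, the cycle at which probe fluorescence released by Taq 5′-nuclease activity crosses a set level; Ct falls as hTERT mRNA rises. cDNA of treated and untreated cells was compared, with starting transcripts quantified against a known-cDNA standard curve.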

[2] = system: viable cells in culture; assay: Cell viability assay (CellTiter-Glo Luminescent Cell Viability Assay, ATP quantitation, percent of vehicle control)

SMILES | Average Number of hTERT Transcripts [1] | Average Cell Viability after 24 Hours (% DMSO) [2] [% DMSO]
O=C(NC(=S)Nc1cc([N+](=O)[O-])ccc1O)c1ccc(Br)o1 [compound 1418] | 42.80 | 94.19
CCC(=O)NC(=S)Nc1ccccc1C#N [compound 1419] | 5.40 | 87.51
Cc1cc(C)c(S(=O)(=O)Nc2ccccc2C(=O)NCCc2ccccc2)c(C)c1 [compound 1420] | 57.36 | 73.35
COc1ccc(S(=O)(=O)N(CC(=O)NC2CC3CCC2C3)c2ccccc2)cc1OC (stereo not shown) [compound 1421] | 6.96 | 104.42
CC1CCN(C(=S)NC(=O)c2sc3ccccc3c2Cl)CC1 [compound 1422] | 19.95 | 102.65
Cc1ccc(S(=O)(=O)Nc2ccccc2C(=O)NCCc2ccccc2)cc1[N+](=O)[O-] [compound 1424] | 37.45 | 94.37
Cc1ccc2nc(-c3ccc(NC(=S)NC(=O)CCc4ccccc4)cc3)sc2c1 [compound 1425] | 17.07 | 79.15
Cc1cccc(NC(=O)CSc2nnc(CNC(=O)c3ccc(Br)cc3)n2C)c1 [compound 1427] | 5.16 | 107.40
O=C(NCCc1ccccc1)c1ccc(NC(=O)C2(c3ccccc3)CCCC2)cc1 [compound 1428] | 7.81 | 92.20
O=C(Cn1c(=O)oc2ccccc21)Nc1cc(Cl)ccc1Cl [compound 1429] | 13.70 | 83.97
O=C(NCC1COc2ccccc2O1)c1ccc(NC(=O)C2COc3ccccc3O2)cc1 (stereo not shown) [compound 1430] | 23.55 | 88.00
CCC(C)NS(=O)(=O)c1ccc(NC(=O)CN2C(=O)c3ccccc3C2=O)cc1 (stereo not shown) [compound 1431] | 9.12 | 100.20
CCC(=O)Oc1cccc2ccc(/C=C/c3ccccc3Cl)nc12 [compound 1432] | 19.46 | 86.95
Cc1ccc(NS(=O)(=O)c2ccc(NC(=O)C(c3ccccc3)c3ccccc3)cc2)cc1C [compound 1433] | 45.43 | 75.77
CC(=O)C1=C(C)NC(SCC(=O)Nc2sc3c(c2C#N)CCCC3)=C(C#N)C1c1ccc(Cl)cc1 (stereo not shown) [compound 1434] | 25.17 | 72.00
COC(=O)CSc1nnc(-c2sc3cc(Cl)ccc3c2Cl)n1C [compound 1435] | 48.10 | 60.23
O=C(Nc1ccccc1OC(F)F)C(c1ccccc1)c1ccccc1 [compound 1436] | 8.14 | 82.48
COC(=O)COc1ccc(S(=O)(=O)N2CCCC2)cc1Cl [compound 1437] | 22.13 | 79.26
O=C(CC(NC1CCCCC1)C(=O)O)Nc1cccc([N+](=O)[O-])c1 (stereo not shown) [compound 1438] | 8.29 | 97.89
CC(=O)c1ccc(NC(=S)Nc2ccc(Br)c(Cl)c2)cc1 [compound 1439] | 11.63 | 51.61
COC(=O)c1sc(NC(=S)NCc2cccnc2)c(C(=O)OC)c1C [compound 1440] | 13.85 | 99.11
CCOC(=O)N1CCN(C(=O)CCc2ccc(S(=O)(=O)NCCc3ccccc3)cc2)CC1 [compound 1441] | 5.06 | 101.03
CCOc1ccc(NC(=O)Nc2cccc(C(C)=O)c2)c([N+](=O)[O-])c1 [compound 1442] | 7.65 | 84.87
Cc1ccc2nc(-c3ccc(NC(=S)Nc4cccc([N+](=O)[O-])c4)cc3)sc2c1 [compound 1443] | 7.82 | 77.16
CC(=O)Oc1ccc2c(=O)c(Oc3ccc4ccccc4c3)c(C(F)(F)F)oc2c1 [compound 1444] | 16.54 | 64.02
CCOC(=O)C(=O)Nc1ccc(S(=O)(=O)N2CC(C)CC(C)C2)cc1 (stereo not shown) [compound 1445] | 6.33 | 87.20
CC(C)(C)C(=O)Nc1nc2c(Cl)c(Cl)ccc2s1 [compound 1446] | 46.62 | 65.61

SMILES | Average Number of hTERT Transcripts [1] | Average Cell Viability after 24 Hours (% DMSO) [2] [% DMSO]
O=C(Cn1cnc2ccccc21)NCCCN1CCOCC1 [compound 1447] | 5.30 | 96.56
FC(F)(F)c1cccc(NC(=S)Nc2ccc(Cc3ccncc3)cc2)c1 [compound 1449] | 48.57 | 53.58
COc1cc(CNC2CCCC2)ccc1OCCO [compound 1450] | 8.24 | 96.61
COc1cc(C)ccc1OC1CCNCC1 [compound 1451] | 5.80 | 96.84
O=C(OCc1cc(=O)n2nc(C3CC3)sc2n1)c1ccc(NC(=O)c2ccco2)cc1 [compound 1452] | 7.45 | 81.09
CC(C)(C)NC(=O)NCc1nnnn1-c1ccccc1 [compound 1453] | 11.03 | 97.19
Cc1cccn2c(=O)cc(COc3ccc(NC(=O)c4cccs4)cc3)nc12 [compound 1454] | 3.99 | 97.09
NNc1ncnc2sc3c(c12)CCCC3 [compound 1455] | 130.06 | 84.96
Nc1c2ccccc2nc2ccccc12 [compound 1456] | 92.07 | 57.96
O=C(CCc1ccccc1)NC(c1cccc([N+](=O)[O-])c1)c1c(O)ccc2ccccc12 (stereo not shown) [compound 1458] | 10.26 | 62.79
COC(=O)c1ccc(Cl)c2c1C1C=CCC1C(c1cccc(F)c1)N2 (stereo not shown) [compound 1459] | 11.14 | 72.75
Cc1cc(C)c2c3c1C1C=CCC1CN3C(C(=O)O)C1CC=CC21 (stereo not shown) [compound 1460] | 46.47 | 89.11
CC(=O)Oc1ccc(C2Nc3ccc4ccccc4c3C3C=CCC32)c(OC(C)=O)c1 (stereo not shown) [compound 1461] | 29.65 | 55.44
CC1=NN(c2ccc(C)c(C)c2)C(=O)/C1=C\NNC(=O)c1ccccc1 [compound 1464] | 18.97 | 67.60
CC1=NN(c2ccccc2)C(=O)/C1=C\NNC(=O)c1ccccc1 [compound 1465] | 20.29 | 80.62
Cc1cc(=O)c2c(=O)n(-c3nc4ccccc4s3)[nH]c2[nH]1 [compound 1466] | 97.31 | 75.47
O=C(O)CCc1ccc(-c2ccc(Cl)cc2)o1 [compound 1467] | 108.02 | 79.50
CC[C@@]1(C2O[C@@H](C3O[C@@](O)(CC)[C@H](C)C[C@@H]3C)C[C@@H]2C)CC[C@H]([C@]2(C)CCC3(C[C@H](O)[C@@H](C)[C@@H]([C@H](C)[C@@H](OC)[C@H](C)C(=O)O)O3)O2)O1 (stereo partly shown) [compound 1469] | 59.72 | 60.18
O=C(c1cnn2c(C(F)(F)F)cc(-c3ccco3)nc12)N1CCCCC1 [compound 1471] | 148.88 | 90.01
CC(/C=C/C(=O)NO)=C\C(C)C(=O)c1ccc(N(C)C)cc1 (stereo not shown) [compound 1472] | 76.60 | 82.14
CC(/C=C/c1ccc(N(C)C)cc1)=N\NC(=N)SC1CC(=O)N(c2ccc(Cl)cc2)C1=O (stereo not shown) [compound 1473] | 32.72 | 69.29
c1ccc(-n2ncc3c2-c2[nH]c4ccccc4c2CC3)cc1 [compound 1474] | 17.37 | 80.47
Clc1ccc(OCc2nn3c(Cc4ccccc4)nnc3s2)c(Cl)c1 [compound 1475] | 17.56 | 67.26
c1ccc(-c2nc3cc(Oc4ccc5[nH]c(-c6ccccn6)nc5c4)ccc3[nH]2)nc1 [compound 1476] | 25.18 | 86.51
Cc1ccc(OCC(=O)N/N=C/c2c(C)nn(-c3ccccc3)c2O)c(C)c1 [compound 1483] | 5.19 | 81.33
CCCC1=NN(c2ccc(C(=O)OCC)cc2)C(=O)C1 [compound 1484] | 16.52 | 62.51

— patent publication US12404304B1, “Telomerase reverse transcriptase (TERT) expression enhancing compounds and methods for using the same” (Sierra Sciences, LLC, priority 2007, dated 2025)
